For data set [1], the system named is ASC speck formation in THP-1 ASC-GFP cells. The experiment in a line: ASC speck assay, live-cell imaging. Format: cell-based, Human. The settings on record: for ASC speck formation remaining with inhibitor: 5 μM peptide, nigericin at 5 μM gives 38%. Here is the method: ASC speck is a hallmark of inflammasome formation (Dick et al., 2016; Hoss et al., 2017) and observable by microscopy (Doyle et al., 2012; Stutz et al., 2013). THP-1 ASC-GFP cells stably expressing the ASC-GFP fusion protein (InvivoGen Catalog #: thp-ascgfp) were used to visualize the inhibitory effect of SAH-POP1-4 on ASC specks formation (Fernandes-Alnemri et al., 2007).
Experimental Procedure for ASC Speck Assay. THP1 ASC-GFP cells were seeded at 2×10^6/ml (0.7-1 mL) in RPMI1640 medium with 10% FCS in FluoroDish (FD35-100) and cultivated in the presence of 50 nM phorbol-12-myristate-13-acetate (PMA) for 24 h, then media was replaced by fresh media and incubated for 24 h. Then cells were stimulated with 200 ng/ml LPS from E. coli (sigma) for 3 h. The media was removed and replaced with serum-free medium (OptiMEM) containing DMSO (1:1,000), 20 μM inhibitors for 30 min. […] Control samples were incubated with media lacking LPS or nigericin. Then, ASC specks were tested by confocal microscopy SP8 (Leica Microsystems).
ASC speck is the hallmark of inflammasome formation and observable by microscopy. THP-1 ASC-GFP cells stably expressing the ASC-GFP fusion protein (InvivoGen Catalog #: thp-ascgfp) were used to visualize the inhibitory effect of SAH-POP1-17 on ASC specks formation (Fernandes-Alnemri et al., 2007). […] SAH-POP1-17 at 5 μM inhibited ASC speck formation to 4%, and SAH-POP1-18 at 5 μM inhibited ASC speck formation to 8%.

Data set [2] has as its target T1, GST-ASC^PYD (Homo sapiens, UniProt Q9ULZ3).
T1 construct: human ASC (residues 1-106) was cloned into a pGEX-4T1 vector; made in house; host or cells: E. coli BL21 DE3
Nature of the data set: KD (μM) | GST-ASC^PYD. The text has this: (§1) Table printed on a drawing sheet, FIG. 10
Head of the field: KD (μM) | GST-ASC^PYD
(§2) The patent's description of the figure: FIG. 10 is a table showing the results from a fluorescence anisotropy binding assay to determine the accurate binding affinities of stapled peptides fPOP1-H2 (SEQ ID NO: 2), fSAH-POP1-1 (SEQ ID NO: 1), fSAH-POP1-3 (SEQ ID NO: 3), fSAH-POP1-4 (SEQ ID NO: 4), fSAH-POP1-5 (SEQ ID NO: 5), fSAH-POP1-6 (SEQ ID NO: 6), fSAH-POP1-7 (SEQ ID NO: 7), fSAH-POP1-8 (SEQ ID NO: 8), fSAH-POP1-9 (SEQ ID NO: 9), fSAH-POP1-10 (SEQ ID NO: 10), fSAH-POP1-11 (SEQ ID NO: 11), fSAH-POP1-12 (SEQ ID NO: 12), fSAH-POP1-13 (SEQ ID NO: 13), fSAH-POP1-14 (SEQ ID NO: 14), fSAH-POP1-15 (SEQ ID NO: 15), fSAH-POP1-16 (SEQ ID NO: 16), fSAH-POP1-17 (SEQ ID NO: 17), fSAH-POP1-18 (SEQ ID NO: 18), fSAH-POP1-19 (SEQ ID NO: 19), fSAH-POP1-20 (SEQ ID NO: 20), fSAH-POP1-21 (SEQ ID NO: 21), fSAH-POP1-22 (SEQ ID NO: 22), fSAH-POP1-23 (SEQ ID NO: 23), fSAH-POP1-24 (SEQ ID NO: 24), fSAH-POP1-25 (SEQ ID NO: 25), fSAH-POP1-26 (SEQ ID NO: 26), fSAH-POP1-27 (SEQ ID NO: 27), fSAH-POP1-28 (SEQ ID NO: 28), fSAH-POP1-29 (SEQ ID NO: 29), fSAH-POP1-30 (SEQ ID NO: 30), fSAH-POP1-31 (SEQ ID NO: 31).
(§3) First copying reader's note: Second part of the same figure; in the structures S5, NL (N with lowered L) and NH2 carry lowered signs, a drawn bracket joins the two S5 residues (staple), and the SEQ ID NO column is printed outside the table frame.
Where the first naming reader finds the target: head: GST-ASC^PYD

Data set [3] has as its target T2, GST-NLRP3^PYD (Homo sapiens, UniProt Q96P20).
T2 construct: human NLRP3 (residues 3-110) was cloned into a pET-21b vector; made in house; host or cells: E. coli BL21 DE3
Nature of the data set: KD (μM) | GST-NLRP3^PYD.
Description: as §1
Head of the field: KD (μM) | GST-NLRP3^PYD
as §2, §3
Where the first naming reader finds the target: head: GST-NLRP3^PYD

Data set [4] in a line: Circular dichroism (CD) secondary structure of the peptides. Conditions: aqueous solution; 100 μM peptide in 10 mM potassium phosphate, 100 mM potassium fluoride buffer (pH=7.5). Type of data set: physicochemical. On the procedure: Circular dichroism (CD) was used to determine the secondary structure of the peptides. […] Hydrocarbon stapling promoted α-helix contents with SAH-POP1-4 and SAH-POP1-8 having the highest in aqueous solution.
CD spectra were recorded on an AVIV Model 215 Circular Dichroism Spectrometer. Each spectrum was collected with the wavelength between 190 to 260 nm, 0.5 nm increments, and 0.5 s averaging time using a 1-mm path length cell. The peptide concentration was 100 μM in 10 mM potassium phosphate and 100 mM potassium fluoride buffer (pH=7.5). The studied peptides were completely dissolved in this buffer. CD spectra were initially plotted as wavelength versus millidgree, the default output of the instrument. Once the precise peptide concentration was confirmed, the mean residue ellipticity [Θ] was calculated for the y-axis.

Bridge positions count the residues as written; N and C are the ends. Square brackets hold non-standard residues; d marks the D form. Ends that are not written are not given here. Peptide text beside a SMILES is read from it. * marks the point of attachment. FITC = O=C1OC2(c3ccc(O)cc3Oc3cc(O)ccc32)c2ccc(NC(=S)*)cc21; S5 = C=CCCC[C@](C)(N)C(=O)O; Nle = CCCC[C@H](N)C(=O)O; βAla = NCCC(=O)O

T1 sequence (Q9ULZ3 1-106): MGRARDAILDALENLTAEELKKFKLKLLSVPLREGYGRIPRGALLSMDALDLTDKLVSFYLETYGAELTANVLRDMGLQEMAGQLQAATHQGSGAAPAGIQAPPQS
T2 sequence (Q96P20 3-110): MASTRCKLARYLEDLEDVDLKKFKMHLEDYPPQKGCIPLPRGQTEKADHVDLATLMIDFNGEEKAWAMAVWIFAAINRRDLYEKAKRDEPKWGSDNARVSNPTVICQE

`CO[C@@H]1C[C@@H](C[C@H]2CC[C@H](C)[C@H]([C@@H](C)C(=O)O)O2)O[C@]2(O[C@](C)([C@H]3CC[C@@](C)([C@@H]4O[C@@H]([C@H]5O[C@@](O)(CO)[C@H](C)C[C@@H]5C)C[C@@H]4C)O3)C[C@H]2C)[C@@H]1C` [nigericin, reference compound]: the “activation of ASC speck formation” value in data set [1] (nigericin at 2 μM) is reported as “activated ASC speck formation”. The “ASC speck formation activated” value in data set [1] (nigericin at 5 μM, no inhibitor) came to 38%. Turning to `CCCC[C@H](NC(=O)[C@H](Cc1c[nH]c2ccccc12)NC(=O)[C@H](CCC(N)=O)NC(=O)[C@]1(C)CCCC=CCCC[C@](C)(NC(=O)[C@H](CCC(N)=O)NC(=O)CCNC(=S)Nc2ccc3c(c2)C(=O)OC32c3ccc(O)cc3Oc3cc(O)ccc32)C(=O)N[C@@H](CC(C)C)C(=O)N[C@@H](CCCNC(=N)N)C(=O)N[C@@H](CCCNC(=N)N)C(=O)N1)C(=O)N[C@@H](CC(C)C)C(=O)N[C@@H](CO)C(=O)N[C@H](C(=O)N[C@@H](C)C(N)=O)[C@@H](C)O` [fSAH-POP1-31] ({FITC-βAla}-Q[S5]LRR[S5]QW[Nle]LSTA-NH2; staple 2-6), the Kd in data set [2] was determined as 7.8 ± 1.1 µM; in data set [3], 4.7 ± 0.54 µM. For `CCCC[C@H](NC(=O)[C@H](Cc1c[nH]c2ccccc12)NC(=O)[C@H](CCC(N)=O)NC(=O)[C@]1(C)CCCC=CCCC[C@](C)(NC(=O)[C@H](CCC(N)=O)NC(=O)CCNC(=S)Nc2ccc3c(c2)C(=O)OC32c3ccc(O)cc3Oc3cc(O)ccc32)C(=O)N[C@@H](CC(C)C)C(=O)N[C@@H](CCCNC(=N)N)C(=O)N[C@@H](CCCNC(=N)N)C(=O)N1)C(=O)N[C@@H](CC(C)C)C(=O)NCC(=O)N[C@H](C(=O)N[C@@H](C)C(N)=O)[C@@H](C)O` [fSAH-POP1-28] ({FITC-βAla}-Q[S5]LRR[S5]QW[Nle]LGTA-NH2; staple 2-6) the same measures were 7.2 ± 1.1 µM and 7.7 ± 1.5 µM.

As to `CCCC[C@H](NC(=O)[C@H](Cc1c[nH]c2ccccc12)NC(=O)[C@H](CCC(N)=O)NC(=O)[C@]1(C)CCCC=CCCC[C@](C)(NC(=O)[C@H](CCC(N)=O)NC(=O)CCNC(=S)Nc2ccc3c(c2)C(=O)OC32c3ccc(O)cc3Oc3cc(O)ccc32)C(=O)N[C@@H](CO)C(=O)N[C@@H](CCCNC(=N)N)C(=O)N[C@@H](CCCNC(=N)N)C(=O)N1)C(=O)N[C@@H](CCC(N)=O)C(=O)N[C@@H](Cc1c[nH]c2ccccc12)C(=O)N[C@H](C(=O)N[C@@H](C)C(N)=O)[C@@H](C)O` [fSAH-POP1-26] ({FITC-βAla}-Q[S5]SRR[S5]QW[Nle]QWTA-NH2; staple 2-6), the Kd in data set [2] was determined as 5 ± 0.79 µM; in data set [3] it was 11 ± 1.1 µM. On to “POP1-H2: Reference peptide, unstapled, amino acid sequence EELKKFKMKLGTV [reference compound]”, for which the “α-helical structure / α-helix contents by circular dichroism” value in data set [4] is reported as “does not exhibit α-helical structure”. For the compound “SAH-POP1-17: Stapled peptide synthesized by FIG. 11, SEQ ID NO: 44 (QXLRRXQWXLWTA; hydrocarbon staple; (2)..(2) X= S5=(S)-2-(4-pentenyl)alanineS5, the two Xs are also directly connected by a double bond; (6)..(6) X= S5=(S)-2-(4-pentenyl)alanineS5, the two Xs are also directly connected by a double bond; (9)..(9) X= NL = norleucine)”, the “ASC speck formation remaining with inhibitor” value in data set [1] turned out to be 4%.

Regarding `CCCC[C@H](NC(=O)[C@H](Cc1c[nH]c2ccccc12)NC(=O)[C@H](CCC(N)=O)NC(=O)[C@]1(C)CCCC=CCCC[C@](C)(NC(=O)[C@H](CCC(N)=O)NC(=O)CCNC(=S)Nc2ccc3c(c2)C(=O)OC32c3ccc(O)cc3Oc3cc(O)ccc32)C(=O)N[C@@H](CC(C)C)C(=O)N[C@@H](CCCNC(=N)N)C(=O)N[C@@H](CCCNC(=N)N)C(=O)N1)C(=O)N[C@@H](CC(C)C)C(=O)N[C@@H](CC(N)=O)C(=O)N[C@H](C(=O)N[C@@H](C)C(N)=O)[C@@H](C)O` [fSAH-POP1-30] ({FITC-βAla}-Q[S5]LRR[S5]QW[Nle]LNTA-NH2; staple 2-6), the equilibrium dissociation constant (Kd) in data set [2] is 7.5 ± 1.1 µM; in data set [3] it was 6.7 ± 1.2 µM.

With `CCCC[C@H](NC(=O)[C@H](Cc1c[nH]c2ccccc12)NC(=O)[C@H](CCC(N)=O)NC(=O)[C@]1(C)CCCC=CCCC[C@](C)(NC(=O)[C@H](CCC(N)=O)NC(=O)CCNC(=S)Nc2ccc3c(c2)C(=O)OC32c3ccc(O)cc3Oc3cc(O)ccc32)C(=O)N[C@@H](CC(C)C)C(=O)N[C@@H](CCCNC(=N)N)C(=O)N[C@@H](CCCNC(=N)N)C(=O)N1)C(=O)N[C@@H](CC(C)C)C(=O)N[C@@H](CC(=O)O)C(=O)N[C@H](C(=O)N[C@@H](C)C(N)=O)[C@@H](C)O` [fSAH-POP1-29] ({FITC-βAla}-Q[S5]LRR[S5]QW[Nle]LDTA-NH2; staple 2-6), the Kd in data set [2] was 5.5 ± 0.69 µM; in data set [3], 6 ± 0.92 µM. For “SAH-POP1-18: Stapled peptide synthesized by FIG. 11, SEQ ID NO: 45 (Q[S5]LRR[S5]QWFLWTA-NH2; staple 2-6; N-terminus assumed; SMILES CC(C)C[C@H](NC(=O)[C@H](Cc1ccccc1)NC(=O)[C@H](Cc1c[nH]c2ccccc12)NC(=O)[C@H](CCC(N)=O)NC(=O)[C@]1(C)CCCC=CCCC[C@](C)(NC(=O)[C@@H](N)CCC(N)=O)C(=O)N[C@@H](CC(C)C)C(=O)N[C@@H](CCCNC(=N)N)C(=O)N[C@@H](CCCNC(=N)N)C(=O)N1)C(=O)N[C@@H](Cc1c[nH]c2ccccc12)C(=O)N[C@H](C(=O)N[C@@H](C)C(N)=O)[C@@H](C)O)”, the “ASC speck formation remaining with inhibitor” value in data set [1] was 8%.

For `CCCC[C@H](NC(=O)[C@H](Cc1c[nH]c2ccccc12)NC(=O)[C@H](CCCCN)NC(=O)[C@]1(C)CCCC=CCCC[C@](C)(NC(=O)[C@H](CCC(N)=O)NC(=O)CCNC(=S)Nc2ccc3c(c2)C(=O)OC32c3ccc(O)cc3Oc3cc(O)ccc32)C(=O)N[C@@H](CO)C(=O)N[C@@H](CCCNC(=N)N)C(=O)N[C@@H](CCCNC(=N)N)C(=O)N1)C(=O)N[C@@H](CCC(N)=O)C(=O)N[C@@H](Cc1c[nH]c2ccccc12)C(=O)N[C@H](C(=O)N[C@@H](C)C(N)=O)[C@@H](C)O` [fSAH-POP1-27] ({FITC-βAla}-Q[S5]SRR[S5]KW[Nle]QWTA-NH2; staple 2-6), the Kd in data set [2] is 3.9 ± 0.68 µM; in data set [3], 7.9 ± 1.1 µM.

In general, Kd refers to the concentration at which binding is half-saturated.
